The record followed here is the supplement of paper PMC4862054.

The structures appear in SMILES notation.

Assay in all cases: drug sensitivity score (DSS), CellTox Green (DSS (AUC-based score)); higher = stronger drug effect (viability inhibition or cytotoxicity); extreme values may be limits of the assay
What all share (conditions): incubation time: 72 h

One assay deals with MDA-MB-453. The gist of the method: (§1)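 Breast cancer cell lines were seeded in 20 µl suspension into 384-well plates already holding compound and incubated for 72 h. Each compound was tested at 5 concentrations in 10-fold steps across its own 10,000-fold range. Plates were normalised to 0.1 % DMSO and a positive kill control after CellTox Green and then CellTiter-Glo readings. The area under the fitted dose-response curve served as the basis for the drug sensitivity score.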

Another assay concerns HCC1937. The gist of the method: as §1
The subject of the next assay is CAL-148. The gist of the method: as §1
In a further assay the test system is MDA-MB-468. The gist of the method: as §1
For another assay, the system named is MDA-MB-231. The gist of the method: as §1
For another assay, the system named is CAL-51. Summed up:
as §1

The subject of another assay is BT-474. The gist of the method: as §1
A further assay has as its system MDA-MB-436. Summed up:
as §1

Another assay has as its system Hs578T. Summed up: as §1
The next assay has as its system DU-4475. The gist of the method:
as §1

As to `CN(c1ccccc1CNc1nc(Nc2ccc3c(c2)CC(=O)N3)ncc1C(F)(F)F)S(C)(=O)=O`, the drug sensitivity score in the assay with MDA-MB-453 was found to be 0; in the assay on HCC1937 it was 0; in the assay on CAL-148 it was 0; with MDA-MB-468, 0; with MDA-MB-231, 8.46; in the assay with CAL-51, 17.6. The drug sensitivity score worked out at 0 in the assay on BT-474, 0 with MDA-MB-436, 10.4 with Hs578T and 0 in the assay with DU-4475.
For `COc1ncc(-c2ccc3nccc(-c4ccnnc4)c3c2)cc1NS(=O)(=O)c1ccc(F)cc1F`, the drug sensitivity score in the assay on MDA-MB-453 was found to be 0; in the assay with HCC1937 it was 5.84; with CAL-148, 6.5; in the assay with MDA-MB-468, 9.19; in the assay on MDA-MB-231, 3.08; with CAL-51 it was 6.6. Also, the drug sensitivity score with BT-474 amounted to 6.83; in the assay with MDA-MB-436, 0; in the assay with Hs578T it was 3.92; in the assay with DU-4475 it was 0.
Regarding `C[C@@]1(C(=O)Nc2ccc(F)nc2)CCCN1c1nc(Nc2cc(C3CC3)n[nH]2)c2cccn2n1`, the drug sensitivity score in the assay on MDA-MB-453 turned out to be 0; with HCC1937 it was 0; with CAL-148 it was 2.31; in the assay with MDA-MB-468, 18.2; with MDA-MB-231, 6.52; in the assay on CAL-51, 10.5. Moreover, the drug sensitivity score in the assay with BT-474, in the assay on MDA-MB-436, in the assay with Hs578T and in the assay on DU-4475 was 0 in each case.
`Nc1nccc(-c2c(-c3ccc(F)cc3)ncn2C2CCCCC2)n1`: the drug sensitivity score with MDA-MB-453, in the assay on HCC1937, with CAL-148, in the assay with MDA-MB-468, in the assay with MDA-MB-231 and in the assay on CAL-51 was 0 throughout. Further, the drug sensitivity score in the assay with BT-474, in the assay on MDA-MB-436, with Hs578T and with DU-4475 was 0 throughout.
Turning to `COc1c(C)cnc(Cn2cnc3c(Cl)nc(N)nc32)c1C` [BIIB021], the drug sensitivity score is 0 in the assay with MDA-MB-453; 0 in the assay with HCC1937; 16 in the assay on CAL-148; 0 in the assay on MDA-MB-468; 6.24 in the assay with MDA-MB-231; 5.48 in the assay on CAL-51. In addition, the drug sensitivity score was 4.79 with BT-474, 0 with MDA-MB-436, 3.62 with Hs578T and 4.2 in the assay with DU-4475.
On to `CC(C)C[C@H](NC(=O)[C@H](Cc1ccccc1)NC(=O)c1cnccn1)B(O)O` [Bortezomib], for which the drug sensitivity score with MDA-MB-453 was 2.35; with HCC1937, 21.4; in the assay on CAL-148 it was 13.5; in the assay on MDA-MB-468, 33.3; with MDA-MB-231, 22.4; in the assay with CAL-51 it was 18.7. The drug sensitivity score stood at 6.53 with BT-474, 16.6 with MDA-MB-436, 17.3 in the assay on Hs578T and 2.21 with DU-4475.
As for `CS(=O)(=O)OCCCCOS(C)(=O)=O` [Busulfan], the drug sensitivity score is 0 in the assay on MDA-MB-453; 0 in the assay on HCC1937; 0 in the assay with CAL-148; 3.07 in the assay with MDA-MB-468; 0 in the assay on MDA-MB-231; 0 in the assay with CAL-51. Also, the drug sensitivity score in the assay with BT-474, with MDA-MB-436, in the assay on Hs578T and in the assay with DU-4475 was 0 in each case.
Regarding `C#Cc1cccc(Nc2ncnc3cc(OC)c(OCCCCCCC(=O)NO)cc23)c1` [CUDC-101], the drug sensitivity score with MDA-MB-453 was 4.37; in the assay with HCC1937, 0; in the assay on CAL-148, 8.84; in the assay with MDA-MB-468 it was 13; in the assay on MDA-MB-231, 12.7; in the assay on CAL-51, 6.83. The drug sensitivity score with BT-474 came out at 6.29; in the assay on MDA-MB-436 it was 5.42; with Hs578T, 2.25; with DU-4475 it was 2.65.
Turning to `COc1cccc2c1C(=O)c1c(O)c3c(c(O)c1C2=O)C[C@@](O)(C(C)=O)C[C@@H]3O[C@H]1C[C@H](N)[C@H](O)[C@H](C)O1` [Daunorubicin], the drug sensitivity score in the assay on MDA-MB-453 stood at 0; in the assay with HCC1937, 0; with CAL-148 it was 0; in the assay on MDA-MB-468 it was 4.94; in the assay on MDA-MB-231, 0; with CAL-51 it was 5.74. In addition, the drug sensitivity score with BT-474 worked out at 0; with MDA-MB-436, 1.42; in the assay on Hs578T, 0; with DU-4475, 0.
Consider `CN1CCN(c2ccc3nc(-c4c(N)c5c(F)cccc5[nH]c4=O)[nH]c3c2)CC1` [Dovitinib], for which the drug sensitivity score with MDA-MB-453 is 0; in the assay with HCC1937 it was 0; in the assay with CAL-148 it was 0; in the assay with MDA-MB-468, 0; in the assay on MDA-MB-231, 0.731; in the assay with CAL-51, 0. Moreover, the drug sensitivity score in the assay with BT-474 was determined as 0; in the assay with MDA-MB-436, 0; in the assay with Hs578T, 4.14; with DU-4475, 0.
Consider `O=c1[nH]c(=O)n([C@H]2C[C@H](O)[C@@H](CO)O2)cc1F` [Floxuridine], for which the drug sensitivity score with MDA-MB-453 is 0; in the assay on HCC1937, 0; with CAL-148 it was 0; in the assay on MDA-MB-468 it was 0; in the assay with MDA-MB-231, 0; with CAL-51 it was 5.94. In addition, the drug sensitivity score in the assay on BT-474, in the assay with MDA-MB-436, in the assay on Hs578T and with DU-4475 was 0 throughout.
For `O=c1[nH]cc(F)c(=O)[nH]1` [Fluorouracil], the drug sensitivity score in the assay on MDA-MB-453, with HCC1937, in the assay with CAL-148, in the assay with MDA-MB-231, in the assay on CAL-51 and with BT-474 was 0 in each case. Also, the values for the drug sensitivity score in the assay on MDA-MB-436, in the assay with Hs578T and in the assay on DU-4475 were 0.291, 0 and 0, respectively.
On to `C[C@@H]1C=C2C(=O)O[C@@H]3CC[C@H](C1)[C@]23O` [Galiellalactone], for which the drug sensitivity score in the assay with MDA-MB-453, in the assay on HCC1937, in the assay with CAL-148, in the assay with MDA-MB-468, in the assay with MDA-MB-231 and with CAL-51 was 0 each time. For the same compound, the drug sensitivity score in the assay with BT-474, in the assay with MDA-MB-436, with Hs578T and with DU-4475 was 0 each time.
